Assay results taken from patent publication US8754056B2, “Enhancing vessel lesion homing and repair potential of stem cells” (University of Florida Research Foundation, Inc., priority 2008, dated 2014).
[PMO-N] = phosphorodiamidate morpholino subunit (N: the base)

Columns and labels:
[1] = tested on: human peripheral blood-derived CD34+ cells; test: NO production by DAF-FM fluorescence imaging; assay type: cell-based; settings: for NO generation in response to SDF-1 after PMO treatment / NO-release by SDF-1 in anti-TGFβ-PMO treated cells with inhibitor: diabetic CD34+ cells; for NO generation in response to SDF-1 after PMO treatment / NO-release in response to SDF-1 after PMO pre-treatment: PMO 40 μg/mL; for NO-release in response to SDF-1 after PMO pre-treatment: n=3
Description: Human CD34^+ EPCs were incubated overnight with either control-PMO or anti-TGF-β-PMO at a concentration of 40 μg/mL. NO production was quantified in human peripheral blood-derived CD34^+ cells using NO-sensitive cell-permeant fluorescent dye DAF-FM. CD34^+ EPCs were loaded with 20 μM DAF-FM diacetate (Invitrogen) in 500 μl, of DPBS (MediaTech. Inc.) with glucose (1 mg/mL) and L-arginine (1 mM). […] Pharmacological inhibitors were added 30 min before the addition of DAF-FM. […] Cells were washed (4×) and 75 μL of cell suspension was placed in the coverslip-bottomed dish for fluorescence imaging. Fluorescent images were obtained using a computer-controlled monochromator excitation light source (TILL Polychrome II, TILL-Photonics, Martinsried, Germany) and a cooled CCD camera with exposure control (SensiCam, Till-photonics). During excitation at 488 nm with 50 ms of exposure time, emission at 510 nm was collected by the camera at 2×2 binning and images were acquired by Till-Vision software (Till Photonics, Martinsried, Germany). Images were corrected for background and maximum fluorescence intensity in individual cells was quantified in terms of arbitrary fluorescence units using Till-Vision software. Changes in fluorescence with different treatments were expressed as percent change with respect to cells that were used as time/vehicle control i.e. cells received no treatments but loaded with DAF-FM. Up to 75 numbers of cells were imaged per sample/donor and ‘n’ denotes number of donors used.

[2] = tested on: human CD34+ EPCs; test: Retinal ischemia-reperfusion injury model, incorporation of injected human CD34+ EPCs; assay type: in vivo, mice; settings: for repair of acellular capillaries: diabetic CD34+ cells
Description: Mice (n=20) were kept under inhalation anaesthesia (isoflurane vapor) during induction of ischemia. The anterior chamber of the eye was cannulated with a 30-gauge needle attached to an infusion line of sterile saline, and the eye was subjected to 2 h of hydrostatic pressure (80-90 mmHg, measured by TonoPen; Medtronic Solan, Jacksonville, Fla.). […] The contralateral eye served as a control.
Seven days after the insult, at which time retinal capillary damage was appreciable,^14,15 the animals were injected intravitreally with isolated human CD34^+ EPCs pre-treated with either […] or control-PMO. After 48 h the animals were euthanized, the eyes were enucleated and the neural retinas were isolated by dissection. The retinas were permeabilized as described above, and reacted with rhodamine-conjugated R. communis agglutinin I. To assess the location of the injected human CD34^+ EPCs, retinas were further incubated with mouse monoclonal anti-human nuclear antigen (Chemicon) followed by secondary staining with FITC-conjugated goat-anti-mouse IgG antibodies (Chemicon). Confocal images of six random fields were taken and fluorescence intensity in each 100 μm^2 was analysed using ImageJ software. Appropriate non-immune antibodies, as well as incubation without primary antibody, were used to determine background and non-specific antibody binding.

[3] = tested on: Diabetic PB CD34+CD45+; test: Surface antigen expression after PMO treatment, diabetic cells; assay type: cell-based, human
[4] = tested on: CXCR4; test: Real-time PCR of CXCR4 mRNA in CD34+ EPCs; assay type: cell-based, human; settings: normalized to β-actin
Description: (§1) Total mRNA from CD34 cells was isolated by using the Total RNA Mini Kit (Bio-Rad, Hercules, Calif.). The mRNA was transcribed by using an iScript cDNA Synthesis Kit (BioRad), and real-time PCR was performed using primers for CXCR4, CXCR7, or beta actin as per manufacturer's instructions (Ambion, Austin, Tex.). Real-time PCR was performed on 7500 Fast Real-Time PCR system for 40 cycles and all reactions were performed in triplicate.

[5] = tested on: Normal MPB CD34+CD45+; test: Surface antigen expression after PMO treatment, normal cells; assay type: cell-based, human
[6] = tested on: human CD34+ cells; test: Survival in the absence of growth factors and later proliferation of CD34+ cells; assay type: cell-based
Description: Two discrete cord blood stem cell populations, lin^−CD34^+CD38^+ (FIG. 5A) or lin^−CD34^+CD38^− (FIG. 5B), in addition to lin^−CD34^+ cells from peripheral blood and bone marrow (FIG. 6A) were either treated with PMO containing medium or not. After 5 days, all cells received growth factors (Tpo, SCF, IL-3, IL-6) to detect live, growth factor responsive cells and their proliferative potential after 14 days was determined. By day 14, cells exposed to 20-300 μg/mL of anti-TGF-β-PMO typically formed macro colonies (>100,000 cells) after the addition of growth factors (FIG. 5).
Human cord blood and bone marrow CD34^+ EPCs were purchased from AllCells (Emeryville, Calif.) as positively selected lin^−, magnetic bead-purified frozen cell populations that were >95% CD34^+ cells by FACS analysis. Cells were thawed in a 37° C. water bath, diluted in excess IMDM 10% FBS, pelleted by centrifugation (300×g for 10 min), washed by centrifugation one additional time and, finally, counted using a hemocytometer. Viability, as determined by trypan blue dye exclusion, was routinely >95% after thaw and washes.
Further purification was carried out prior to survival and proliferation studies. Cells were adjusted to 5×10^5/mL in phosphate-buffered saline (PBS) containing 2% (v/v) fetal bovine serum (FBS) and incubated with single murine antibody controls and murine anti-CD34-PE, anti-CD45-PE-Cy5 and anti-CD38-APC. Just prior to cell sorting, propidium iodide (2 μg/mL) was added to detect non-viable cells. CD34^+, CD45^mid cells (HSCs are CD45^mid expressing and can be clearly separated from contaminating lymphocytes, which are CD45^high expressing) and CD38^+/− cells were directly sorted into 96-well round bottom plates (10±2 cells/well) containing IMDM, 10% horse serum, 10% FBS, 100 units/mL of penicillin, 10 μg/mL streptomycin, 20 mM 1-glutamine and 1 μM hydrocortisone±PMOs. At day 5, a hematopoietic growth factor cocktail (Hgf-cocktail) consisting of 20 ng/mL thrombopoietin, 50 ng/mL stem cell factor, 50 ng/mL interleukin-3 and 20 ng/mL interleukin-6, all purchased from PeproTech, N.J., was added to the wells. Cells were followed by daily direct light microscopy (×200) to assess cell proliferation. Cells that proliferated in response to growth factors were scored as cells that survived after the 5-day period in the absence of growth factors. […]
CD34^+ EPCs were isolated from cord blood, human bone marrow and peripheral blood as described above and sorted 10 cells per well in a 96 well plate in either the presence or absence of growth factors and in presence or absence of anti-TGFβ-PMO. […] This incubation period was previously determined by measuring the uptake of fluorescein isothyocyanate (FITC)-labelled PMOs in HSCs.

[7] = tested on: CD34+ EPCs; test: Modified Boyden chamber migration to SDF-1 after PMO treatment; assay type: cell-based, human; settings: SDF-1 100 nM
[8] = tested on: murine HSCs; test: CNV laser injury model, homing of adoptively transferred GFP+ murine HSCs; assay type: in vivo, mice; settings: overnight pre-treatment of HSCs, vs control-PMO (p<0.05) or medium alone
[9] = tested on: CXCR7; test: Real-time PCR of CXCR7 mRNA in CD34+ EPCs; assay type: cell-based, human; settings: non-diabetic CD34+ cells, P<0.001
Description: as §1

[10] = non-diabetic (normal) CD34+ EPCs

Compound | NO generation in response to SDF-1 after PMO treatment ([1]; n=4) [%] | NO-release in response to SDF-1 after PMO pre-treatment ([1]; non-diabetic CD34+ cells) [%] | repair of acellular capillaries [2] | CD14 % of cells [3] | CD38 % of cells [3] | CD105 % of cells [3] | CXCR4 % of cells [3] | VEGFR-2 % of cells [3] | CXCR4 mRNA expression ([4]; diabetic CD34+ cells) | CXCR4 mRNA expression [4, 10] | CD14 % of cells [5] | CD38 % of cells [5] | CD105 % of cells [5] | CXCR4 % of cells [5] | VEGFR-2 % of cells [5] | further results
O=c1cc(N2CCOCC2)oc2c(-c3ccccc3)cccc12 [LY294002] | – | – | – | – | – | – | – | – | – | – | – | – | – | – | – | NO release by SDF-1 after inhibitor pre-treatment ([1]; non-diabetic CD34+ cells, SDF-1 100 nM, inhibitor 20 μM): 12±3%
control-PMO: control morpholino oligomer, 5′ CGTTCTGATAGCTGTACCTC 3′ (SEQ ID NO: 1), AVI BioPharma sequence ID#0-1-0-555 (antisense CGTTCTGATAGCTGTACCTC; all phosphorodiamidate morpholino (PMO)) [reference compound] | 9.2 | 60±5 | essentially no repair | 59.3 % of cells | 92.2 % of cells | 58.8 % of cells | 74.1 % of cells | 59.3 % of cells | not changed | increased | 69.3 % of cells | 79.9 % of cells | 71.0 % of cells | 88.5 % of cells | 62.9 % of cells | –
c1cc(CN2CCCNCCNCCCNCC2)ccc1CN1CCCNCCNCCCNCC1 [AMD3100] | – | – | – | – | – | – | – | – | – | – | – | – | – | – | – | NO-release by SDF-1 in anti-TGFβ-PMO treated cells with inhibitor ([1]; inhibitor 10 μM): 28±2%; NO release by SDF-1 after inhibitor pre-treatment ([1]; non-diabetic CD34+ cells, SDF-1 100 nM, inhibitor 10 μM): 3±2%
anti-TGF-β-PMO: phosphorodiamidate morpholino antisense oligomer, 5′ GAG GGC GGC ATG III GAG GC 3′ (SEQ ID NO: 2), AVI BioPharma sequence ID#0-1-01067 (antisense GAGGGCGGCATGNNNGAGGC; all [PMO-N], the base at N not given here; further chemistry not fully specified) | 69±7 | 54±4 | robust reparative response | 62.4 % of cells | 94.2 % of cells | 51.7 % of cells | 72.7 % of cells | 62.4 % of cells | significantly increased | down-regulation | 73.3 % of cells | 82.3 % of cells | 62.9 % of cells | 85.3 % of cells | 56.5 % of cells | cell survival ([6]; 40 μg/mL, compared with other concentrations): greatest cell survival; proliferation vs control-PMO ([6]; BM-derived cells): increased proliferation; macro colony size by day 14 after addition of growth factors ([6]; cord blood cells, 20-300 μg/mL, growth factors added after 5 days): > 100,000 cells; proliferation vs control-PMO ([6]; peripheral blood CD34+ cells from diabetics and age- and sex-matched controls): enhanced proliferation; migration to SDF-1 vs control-PMO ([7]; diabetic CD34+ EPCs, P<0.05): enhanced migration; migration to SDF-1 vs control-PMO ([7]; non-diabetic CD34+ EPCs, P<0.01): enhanced migration; numbers of GFP+ HSCs recruited to the laser injury site [8]: substantial increase; increase in incorporation of cells to injured retinal capillaries vs control-PMO ([2]; FITC immunoreactivity per 100 μm^2 area, P<0.001): 2.5 fold; homing to areas of ischemic injury ([2]; pre-treated EPCs injected intravitreally, vs control-PMO): profound homing; CXCR7 mRNA expression [9]: increased
SDF-1: the principal stem/progenitor cell homing factor, used as chemotaxis effector and NO release stimulus | – | – | – | – | – | – | – | – | – | – | – | – | – | – | – | increase in NO generation vs time-control ([1]; non-diabetic CD34+ cells, SDF-1 100 nM, n=4): 45±4%
pertussis toxin | – | – | – | – | – | – | – | – | – | – | – | – | – | – | – | NO-release by SDF-1 in anti-TGFβ-PMO treated cells with inhibitor ([1]; inhibitor 100 ng/mL): 16±3%; NO release by SDF-1 after inhibitor pre-treatment ([1]; non-diabetic CD34+ cells, SDF-1 100 nM, inhibitor 100 ng/ml): 20±9%
